Assay results: a melting point compilation (Tetko et al.; mined from patent text by program, amines drawn as free bases though some values may be those of a salt)

| Compound | melting point [°C] |
| --- | --- |
| CCOC(=O)C=C1CSC(=N)N1N | 135 to 137 |
| CCCCCCN(CCCCCC)c1c(N[C@@H](Cc2ccc(NC(=O)c3ccccc3)cc2)C(=O)O)c(=O)c1=O | 95 to 100 |
| CC(C)(C)c1cc(SC2(Sc3cc(C(C)(C)C)c(O)c(C(C)(C)C)c3)CCCC2)cc(C(C)(C)C)c1O | 138 to 143 |
| O=C(O)C(Cl)(Cl)CCCCCCCCCCCCS(=O)c1ccccc1 (configuration not stated) | 68 |
| O=C(O)CCP(=O)(O)c1ccccc1 | 158 to 161 |
| CCOC(=O)C1=Cc2cc(Cl)cc(C#CCCCCl)c2OC1C(F)(F)F (configuration not stated) | 84.8 to 85.9 |
| CCOC(=O)C(=O)c1csc(NC(=O)Nc2ccc(F)cc2)n1 | 220 to 223 |
| OC1CCN(Cc2ccc(Br)cc2)CC1N1CCC(c2ccccc2)CC1 (configuration not stated) | 159 to 161 |
| CN(CCCCNC(=NCCSCc1csc(NC(=N)N)n1)NC#N)CCN(Cc1ccc(F)cc1)c1ccccn1 | 137 |
| CCOC(=O)Nc1cc(OCC)cc2c1CC(C)O2 (configuration not stated) | 64 |
| CCCCCc1cc2c(nc(O)n2CC2CCN(S(C)(=O)=O)CC2)c(N)n1 | 228 to 231 |
| O=C(Cc1ccccc1)Nc1ccccc1 | 115 to 116 |
| NC(=O)CCCSc1cccc(NC(N)=NCC(F)(F)F)n1 | 138 to 141 |
| O=S1(=O)N=C2CCCN2c2ccc(S(=O)(=O)NC3CCCCC3)cc21 | 151 to 153 |
| C=CCc1cc(C#CC2(O)CN3CCC2CC3)ccc1OCC(=O)OCC (configuration not stated) | 95.9 |
| O=S(=O)(c1ccccc1)C(F)(F)C(O)c1ccccc1 (configuration not stated) | 77 to 79 |
| CN(c1cc(OC(F)(F)F)cc2cc(C3=NCCS3)[nH]c12)S(=O)(=O)c1cccs1 | 179 to 180 |
| COc1ccc(CNc2n[nH]cc2C)cc1OC1CCCC1 | 76 to 77 |
| CC(NC(=O)OCc1ccccc1)P(C)(=O)O (configuration not stated) | 118 to 119 |
| CCC1(CC)c2cc(-c3ccc(-c4ccc(O)cc4)cc3)ccc2-c2ccc(-c3ccc(-c4ccc(O)cc4)cc3)cc21 | > 300 |
| CCOC(=O)c1cc2c(OCc3ccccc3)c(Cc3ccccc3)ccc2[nH]1 | 129 to 131 |
| [N-]=[N+]=NCCc1cccc2[nH]cc(S(=O)(=O)c3cccc(F)c3)c12 | 136 to 138 |
| CC1(C)CC(C)(C)CC(CCC(=O)O)(NC(=O)CCl)C1 | 130 to 131 |
| COC(=O)c1ccc(C(F)(F)F)[nH]c1=O | 63 to 64 |

| Compound | melting point [°C] |
| --- | --- |
| CCc1nc(O)c2c(n1)c(C)nn2C | 220 to 222 |
| CC(OC(=O)C1CCNCC1)C(c1ccccc1)(c1ccccc1)c1ccccc1 (configuration not stated) | 154 to 155 |
| CC(C)c1ccc(Cc2ccc(CC#N)n2C)cc1 | 59 to 64 |
| COC(=O)Cc1ccc(O)c(C23CC4CC(CC(C4)C2)C3)c1 | 185 to 186 |
| CCC=C1Cc2c3c(c(C)c(C)c2C1=O)OC(C(=O)O)C3 (configuration not stated) | 229 |
| CN1CCC(=C2c3ccccc3C=C(Br)c3ccccc32)CC1 | 127 to 129 |
| N#Cc1c(Cl)[nH]c(-c2ccc(Cl)s2)c1Br | > 200 |
| CS(=O)(=O)OCC1OC2CC(CC(OS(C)(=O)=O)C2)O1 (configuration not stated) | 137 to 138 |
| CC(=O)OCc1nc(Cl)cc(N2CCCC2)n1 | 101 to 103 |
| CCC1=C(C)CN(C(=O)NCC2CCOc3cc(O)c(S(N)(=O)=O)cc32)C1=O (configuration not stated) | 175 |
| CCCO[C@@H]1C[C@@H](C(=O)O)N(C(C)=O)C1 | 148 to 153 |
| CCOC(=O)Nc1ccc2c(c1C=O)OCO2 | 123 |
| Cc1ncn(-c2ccc(C(=O)N3Cc4cccn4Cc4ccccc43)c(C(F)(F)F)c2)n1 | 148 to 150 |
| CC(C)(C)NCC(O)CN1C(=O)NC(Cc2c[nH]c3ccccc23)C1=O (configuration not stated) | 190 to 191 |
| O=C(CC(c1ccccc1)c1ccccc1)NC(Cc1ccccc1)C(=O)O (configuration not stated) | 138 to 140 |
| CCc1nn(C2CCCC2)c2cc(C(=O)O)ccc12 | 153 to 155 |
| C[C@@H](O[Si](C)(C)C(C)(C)C)[C@H]1C(=O)N([Si](C)(C)C(C)(C)C)[C@@H]1CC=O | 115 to 116 |
| CCCCN=C(O)c1c(Sc2ccc([N+](=O)[O-])cc2)c(Sc2ccccc2)c(Sc2ccccc2)c(Sc2ccc([N+](=O)[O-])cc2)c1C(=O)O | 175 to 177 |
| CNC(C)=CC(=O)CS(=O)(=O)NC(C)C | 83 to 85 |
| COC(=O)CC(CCc1ccc(C)cc1)NC(C)=O (configuration not stated) | 50 to 51 |
| O=c1cc(Nc2ccc3c(c2)CCC3)[nH]c(=S)[nH]1 | 269 to 272 |
| CCCCc1c(Cl)nc(NC=O)nc1Cl | 82 to 83 |
| O=C(O)CN(CC(=O)O)C(=O)c1cc(OCCCCCCCCCCCCOc2ccccc2)ccc1OCc1ccccc1 | 70 to 75 |
| CN(C)c1ccc(S(=O)(=O)NCCCCC(=O)O)cc1 | 105 to 110 |

| Compound | melting point [°C] |
| --- | --- |
| CCN(c1ccc(C(F)(F)F)cc1)C1CCN(c2ccc(OC[C@H]3CCn4cc([N+](=O)[O-])nc4O3)cc2)CC1 | 206 |
| CCOC(=O)C(CC)(Cc1ccc(OCCN2CCCCC2)cc1)S(=O)(=O)c1ccc(OC)cc1 (configuration not stated) | 75 |
| O=C(CCc1ccc(NC2=NCCN2)cc1)c1ccc(N2CCOCC2)cc1F | 168 to 171 |
| CC1(C)CC(=O)c2cc3c(cc2O1)OCCO3 | 118 to 119 |
| OC1(c2cccnc2N2CCCC2)CCN(CC23CC(c4ccccc42)c2ccccc23)CC1 | 249 to 253 |
| CCCCC(=O)Nc1ccc(Cl)c(-n2nc(CCCC)c(Cc3ccc(-c4ccccc4S(=O)(=O)NC(=O)c4ccccc4Cl)cc3)c2C(=O)OCC)c1 | > 95 |
| CCCCCCCCCCCCNCC(O)CO (configuration not stated) | 75 to 76 |
| COc1cc(C(F)(F)F)nc(S(C)(=O)=O)n1 | 88 to 90 |
| CC(=N)NC(=O)Nc1ccc(C)cc1 | 210 to 212 |
| Nc1c(NCCCOc2cc(CN3CCCCC3)ccn2)c(=O)c1=O | 226 to 228 |
| O=C(O)c1cnc2cc(F)c(F)cc2c1 | 290 |
| CCOC(=O)C1=C(C)Nc2c(C(=O)OCC)ncn2C1c1cccc([N+](=O)[O-])c1 (configuration not stated) | 160 to 162 |
| CC(C)(CON=Cc1ccccc1Cl)C(=O)O | 78 to 80 |
| CCc1cc2c(cc1C#Cc1ccc(C)cc1)C(C)(C)CCC2(C)C | 72 to 73 |
| O=C(O)c1ccccc1-n1c(-c2ccccc2)cc2c1-c1ccccc1CC2 | 170 to 185 |
| C[C@H]1CCCN(C(=O)[C@@H]2Cc3ccccc3N2c2ccc(=S)n(C)n2)C1 | 249 to 252 |
| CCOC(=O)C1=C(C)NC(COC(C)=O)=C(C(=O)OCC)C1c1ccc(OC)cc1 (configuration not stated) | 89 to 90 |
| NCC(=O)Nc1sccc1C(=O)c1ccccc1Cl | 156 to 158 |
| CSCCCCn1c(C)nc2c(N)nc3ccccc3c21 | 190 to 193 |
| CC(C)(C)NS(=O)(=O)c1ccccc1OC(F)(F)F | 137 |
| CCCCCCc1cc2c(cc1O)C(=O)CCC2 | 125 |
| CNC(=O)N(O)C(C)c1ccc(F)c(Br)c1 (configuration not stated) | 137 to 138 |

Further lines, results first:

| melting point [°C] | Compound |
| --- | --- |
| 133 to 135 | CCC(Nc1cc(C)nc(Oc2c(C)cc(Cl)cc2C)c1C(=O)OC)C(C)O (configuration not stated) |
| 153 to 155 | Cc1c(NC(=O)c2ccc(-c3ccc(F)cc3)cc2)ccc2cc(CN3CCC3)cnc12 |
| 228 to 234 | COc1ccc(-c2cnc3cc4cnn(C[C@@H](O)CO)c4cc3n2)cc1F |
| 78 to 80 | CCOC(=O)C=C1CC(c2cccc(C3(c4ccc(OC(F)F)cc4)N=C(N)N(C)C3=O)c2)C1 (configuration not stated) |
| 63 to 64 | CC(C)Oc1ccc(CO)c(Oc2ncc(C(F)(F)F)cc2Cl)c1 |
| 76 to 77 | O=CNCc1cc(C(O)CNCCCCCCOCCCCc2ccccc2)ccc1O (configuration not stated) |
| 169 to 172 | O=C(O)COc1cc(F)c(Br)cc1C(=O)NCc1cccc([N+](=O)[O-])c1 |
| 134 to 135 | COC1SC(c2ccncc2)=C(C)NC1=O (configuration not stated) |
| > 210 | CCCCCCCCCCOc1cc2oc3ccc(C(=O)O)cc3c(=O)c2cc1CCC(=O)O |
| 125 | N=C(NC(=O)c1ccccc1)Oc1ccccc1 |
| 75 to 77 | CCCc1c(OCCCOc2ccc(N)cc2)ccc(C(C)=O)c1O |
| 222 to 223 | CS(=O)(=O)c1ccc(-n2cnc(Cl)c2-c2ccc(Cl)cc2)cc1 |
| 40 to 43 | CN1C(=O)C(c2ccc(OC(F)F)cc2)(c2cccc(COCCF)c2)N=C1N (configuration not stated) |
| > 240 | O=C(Nc1c(C(O)(C(F)(F)F)C(F)(F)F)ccc2ccccc12)c1cnc2ccccc2n1 |
| 168 to 169 | CCOc1c(-c2ccc(O)c(OC)c2)oc2cc(OC)cc(O)c2c1=O |
| > 300 | CC(C)(C)NC(=O)Nc1nc2nc(N)ncc2cc1-c1c(F)cccc1F |

| melting point [°C] | Compound |
| --- | --- |
| 83 | COC(=O)Cn1ccc2ccc(-c3csc(-c4ccccc4)n3)cc21 |
| 177 to 178 | CC(C)(C)c1cc(SCc2cccc(-c3nnn[nH]3)c2)cc(C(C)(C)C)c1O |
| 198 to 202 | CN(C)C=NC(=O)c1cnn2c(-c3ccccc3)ccnc12 |
| 220 to 223 | COc1c(C(=O)C=Cc2ccncc2)cc(Cl)c(N)c1OC |
| 219 to 220 | COCc1cc(O)c2nc(C)n(C)c2c1 |
| 201 to 203 | CC1=C(C(=O)OC(C)C)C(c2cccc([N+](=O)[O-])c2)n2c(cc(=O)n2C(=O)c2ccccc2)N1 (configuration not stated) |
| 75 to 77 | COc1ccc(-c2cc(C(=O)C(C)CN3CCCC3)on2)cc1 (configuration not stated) |
| 198 | COc1cccc(N(CC(=O)O)C(=O)CN2C(=O)c3ccccc3C2=O)c1 |
| 123 to 130 | CCCCCC(C(=O)O)n1cnc2cc(-c3ccccc3-c3nn[nH]n3)ccc21 (configuration not stated) |
| 136 to 137 | OCc1cn(-c2ccc3ccccc3n2)cn1 |
| 112 to 114 | CC1CN(C2=Nc3ccccc3Oc3ccccc32)CC(C)N1 (configuration not stated) |
| 149 to 151 | COCC(C)Nc1cc(-c2ncnc(Nc3cccc(Cl)c3)n2)ccn1 (configuration not stated) |
| 230 to 234 | O=C1Nc2ccc(Cl)cc2SC1c1ccc(Cl)cc1 (configuration not stated) |
| 178 to 182 | Nc1ccc(-c2ccc(Cl)cc2)c(Cl)n1 |
| 154 to 155 | N#CN=C(Nc1cccnc1)Oc1ccccc1 |
| 216 to 219 | Cc1cc2cc(CN3CCCC3)cnc2cc1NC(=O)c1ccc(-c2ccc(C(F)(F)F)cc2)cc1 |
